According to patent US20070275382A1, “Biomarkers for the Efficacy of Somatostatin Analogue Treatment” (priority 2003, published 2007):
*1 amine or outer side, *2 acyl side, *3 side chain or, on linkers, in order; H or OH if unused. Where a SMILES comes first, the peptide text is derived from it. Side-chain parts run from the residue outwards. [ ]: non-standard residue; d: D form. The star is where a group is joined. Ethylenediamine = C(CN[*:2])N[*:1]; Hyp = O=C(O)[CH]1C[CH](O)CN1; Phg = N[CH](C(=O)O)c1ccccc1; CO = O=C([*:1])[*:2]; Bn = c1ccc(C*)cc1

Tests used:
Brown fat = assay: Microarray gene expression profiling (HG-U95A), brown fat; format: in vivo, cynomolgus monkeys
Procedure: Origin of tissue and processing. Male and female cynomolgus monkeys received subcutaneously pasireotide (100 μg/animal/day) or the vehicle for 14 days. On day 15, all animals were sacrificed and tissues for RNA extraction were immediately snap-frozen and kept at −80° C. until processing.
RNA expression profiling was conducted by means of the HG-U95A gene expression probe array (Affymetrix; Santa Clara, Calif. USA), containing more than 12,600 probe sets interrogating primarily full-length human genes and also some control probe sets. The experiment was conducted according to the recommendations of the manufacturer. Briefly, total RNA was obtained by acid guanidinium thiocyanate-phenol-chloroform extraction (Trizol®, Invitrogen Life Technologies, San Diego, Calif. USA) from each frozen tissue section. The total RNA was then purified on an affinity resin (Rneasy®, Qiagen) and quantified. Double stranded cDNA was synthesized with a starting amount of approximately 5 μg full-length total RNA using the Superscript® Choice System (Invitrogen Life Technologies, Carlsbad, Calif. USA) in the presence of a T7-(dT)24 DNA oligonucleotide primer. Following synthesis, the cDNA was purified by phenol/chloroform/isoamyl alcohol extraction and ethanol precipitation. The purified cDNA was then transcribed in vitro using the BioArray® High Yield RNA Transcript Labeling Kit (ENZO, Farmingdale, N.Y. USA) in the presence of biotinylated ribonucleotides form biotin labelled cRNA. The labelled cRNA was then purified on an affinity resin (Rneasy®, Qiagen), quantified and fragmented. An amount of approximately 10 μg labelled cRNA was hybridized for 16 hours at 45° C. to an expression probe array. The array was then washed and stained twice with streptavidin-phycoerythrin (Molecular Probes,) using the GeneChip® Fluidics Workstation 400 (Affymetrix, Santa Clara, Calif. USA). The array was then scanned twice using a confocal laser scanner (GeneArray® Scanner, Agilent, Palo Alto, Calif. USA) resulting in one scanned image. This resulting “.dat-file” was processed using the MAS4 program (Affymetrix) into a “.cel-file”. The “.cel file” was captured and loaded into the Affymetrix GeneChip® Laboratory Information Management System (LIMS). The LIMS database is connected to a UNIX Sun Solaris server through a network filing system that allows for the average intensities for all probes cells (CEL file) to be downloaded into an Oracle database (NPGN). Raw data was converted to expression levels using a “target intensity” of 150. The data were evaluated for quality control and loaded in the GeneSpring® software 4.2.4 (Silicon Genetics, Calif. USA) for analysis.
On the human Affymetrix HGU95Av2 chip, probe sets for individual genes contain 20 oligonucleotide pairs, each composed of a “perfect match” 25-mer and a “mismatch” 25-mer differing from the “perfect” match oligonucleotide at a single base. After probe labelling, hybridization, and laser scanning, the expression level was estimated by averaging the differences in signal intensity measured by oligonucleotide pairs of a given probe (AvgDiff value). The fold changes and directions were calculated for selected genes, from the differences of the AvgDiff values between controls and treated.
To identify genes that were impacted by pasireotide, the dataset was initially filtered to exclude in a first wave of analysis, genes whose values were systematically in the lower expression ranges where the experimental noise is high (at least 80 in a number of experiments corresponding to the smallest number of replicas of any experimental point). In a second round of selection a threshold p-value of 0.05 (based on a t-test) identified differences between treated and control based on a two component error model (Global Error Model) and, whenever possible, with a stepdown correction for multi-hypothesis testing (Benjamini and Hochberg false discovery rate). […]

hSST-4 = biological target: T1, hSST-4 (Homo sapiens, UniProt P31391); details: background statement; cited from earlier work
T1 construct: expressed in transfected cells; host or cells: CHO cells

[1] = ↑ vs control, 100 μg/animal/day s.c., 14 days
[2] = ↓ vs control, 100 μg/animal/day s.c., 14 days

T1 sequence (P31391 whole entry): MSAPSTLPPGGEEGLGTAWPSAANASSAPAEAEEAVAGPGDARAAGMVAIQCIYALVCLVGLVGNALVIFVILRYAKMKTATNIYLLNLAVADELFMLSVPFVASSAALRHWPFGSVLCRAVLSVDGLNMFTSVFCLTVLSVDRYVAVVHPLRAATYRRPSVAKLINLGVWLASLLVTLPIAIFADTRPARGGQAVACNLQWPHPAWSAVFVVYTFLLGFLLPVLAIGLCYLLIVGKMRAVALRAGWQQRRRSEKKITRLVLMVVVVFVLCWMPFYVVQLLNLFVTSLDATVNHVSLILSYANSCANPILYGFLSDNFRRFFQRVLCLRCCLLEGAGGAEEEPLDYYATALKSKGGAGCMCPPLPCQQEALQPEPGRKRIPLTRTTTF

## NCCCCC1NC(=O)C(Cc2c[nH]c3ccccc23)NC(=O)C(c2ccccc2)NC(=O)C2CC(OC(=O)NCCN)CN2C(=O)C(Cc2ccccc2)NC(=O)C(Cc2ccc(OCc3ccccc3)cc2)NC1=O (stereo not drawn) [Pasireotide, cyclo[4-(NH2—C2H4—NH—CO—O)Pro-Phg-DTrp-Lys-Tyr(4-Bzl)-Phe]] (cyclo(F[Hyp]([CO-Ethylenediamine])[Phg]WKY(Bn)); configuration not given here)
Brown fat; 0.1 mg/animal/14day
  IGF-1 expression level, AvgDiff (range): 389 (315 to 449)
  IGFBP 4 expression level, AvgDiff (range): 763 (429 to 1058)
  IRS 2 expression level, AvgDiff (range): 146 (80 to 222)
  SSTR3 expression level, AvgDiff (range): 194 (87 to 248)
Brown fat; [1]
  Adrenergic, β-3-, receptor transcript fold change: receptor ↑ x2.5
  Apotosis-associated tyrosine kinase transcript fold change: tyrosine kinase ↑ x3.5
  CD2 antigen (cytoplasmic tail)-binding protein 2 transcript fold change: binding protein 2 ↑ x2.5
  CSF 3 receptor (granulocyte) transcript fold change: (granulocyte) ↑ x3
  Ca++ channel, voltage dependent, α 1H subunit transcript fold change: ↑ x3
  Cadherin 5, VE-cadherin (vascular epithelium) transcript fold change: epithelium) ↑ x3
  Cyclin T2 transcript fold change: Cyclin T2 ↑ x2.5
  Dopamine receptor D3 transcript fold change: ↑ x2.5
  Dual specificity PP MKP-5 transcript fold change: MKP-5 ↑ x2.5
  Endothelial differentiation, sphingolipid G-protein-coupled receptor, 5 transcript fold change: ↑ x2.5
  FSHR transcript fold change: FSHR ↑ x2.5
  Follistatin-like 3 glycoprotein transcript fold change: glycoprotein ↑ x3
  G protein-activated inwardly rectifying K+ channel transcript fold change: channel ↑ x3.5
  GLUR, metabotropic 1 transcript fold change: ↑ x2
  Guanine nucleotide binding protein (G protein), β polypeptide 3 transcript fold change: ↑ x2.5
  IFN induced transmembrane protein 1 transcript fold change: 1 ↑ x2.5
  IL 3 (CSF, multiple) transcript fold change: ↑ x2
  IL 5R, α transcript fold change: IL 5R, α↑ x2.5
  IL 7R precursor transcript fold change: IL 7R precursor ↑ x2
  IRS (insulin receptor substrate) 2 transcript fold change: substrate) 2 ↑ x2.5
  Oxytocin, prepro-(neurophysin I) transcript fold change: (neurophysin I) ↑ x2.5
  PI glycan, class L transcript fold change: x3.5
  PLC β 4 transcript fold change: PLC β 4 ↑ x2
  PP 5, catalytic subunit transcript fold change: ↑ x2.5
  T3 receptor transcript fold change: T3 receptor ↑ x2
  TGF β 3 transcript fold change: TGF β 3 ↑ x2.5
  TGF β-activated kinase-binding protein 1 transcript fold change: ↑ x2.5
  VGF nerve growth factor inducible transcript fold change: factor inducible ↑ x2
Brown fat; [2]
  Actin related protein 2/3 complex, subunit 1A (41 kD) transcript fold change: (41 kD) ↓ x2.5
  CSF 1 (macrophage) transcript fold change: ↓ x2
  Cadherin 13, H-cadherin (heart) transcript fold change: cadherin (heart) ↓ x2
  Cadherin F1B1 transcript fold change: Cadherin F1B1 ↓ x4
  Calcium/calmodulin-dependent protein kinase I transcript fold change: kinase I ↓ x3.5
  Capping protein (actin filament), gelsolin-like transcript fold change: ↓ x2.5
  Coagulation factor XIIIAI subunit precursor transcript fold change: ↓ x5
  EGF receptor pathway substrate 15 transcript fold change: substrate 15 ↓ x2
  Endothelial cell GF 1 (platelet derived) transcript fold change: (platelet derived) ↓ x2
  Extra spindle poles, S. cerevisiae, homologue of transcript fold change: of ↓ x2.5
  Fms-related tyrosine kinase 1 (VEGF/vascular permeability factor receptor) transcript fold change: factor receptor) ↓ x4.5
  G1 to S phase transition transcript fold change: transition ↓ x1.5
  G protein-coupled receptor 1 transcript fold change: receptor 1 ↓ x2.5
  G α inhibiting activity polypeptide 3 interacting protein transcript fold change: protein ↓ x5
  IFNγ-inducible protein 30 (IP30) transcript fold change: 30 (IP30) ↓ x3.5
  IGF-1 transcript fold change: IGF-1 ↓ x1.5
  IGF-binding protein 4 transcript fold change: ↓ x2
  Neuroblastoma apoptosis-related RNA binding protein transcript fold change: binding protein ↓ x3
  Neuroblastoma transcript fold change: Neuroblastoma ↓ x2.5
  PCNA transcript fold change: PCNA ↓ x2.5
  PI glycan, class F transcript fold change: PI glycan, class F ↓ x2
  PI-3-kinase. regulatory subunit, polypeptide 2 (p85 β) transcript fold change: (p85 β) ↓ x3.5
  PP 2, regulatory subunit B (B56), γ isoform transcript fold change: isoform ↓ x1.5
  Pentaxin-related gene, rapidly induced by IL-1 transcript fold change: ↓ x7.5
  THR interactor 10 transcript fold change: ↓ x3
  THR interactor 12 transcript fold change: ↓ x1.5
  TNF type 1 receptor associated protein transcript fold change: associated protein ↓ x2
hSST-4
  binding to SSTR4: binds to all somatostatin receptors except SSTR4
